Tests used:
[1] = Dynamic moisture sorption (DMS) assessment; assay type: physicochemical
Protocol: A dynamic moisture sorption (DMS) assessment (also known as a moisture sorption-desorption profile) was performed for samples of the crystalline naphthalene-1,5-disulfonic acid salts using a VTI atmospheric microbalance, SGA-100 system (VTI Corp., Hialeah, Fla. 33016). A sample size of approximately 10 mg was used and the humidity was set at the ambient value at the start of the analysis. A typical DMS analysis consisted of three scans: ambient to 2% relative humidity (RH), 2% RH to 90% RH, 90% RH to 5% RH at a scan rate of 5% RH/step. The mass was measured every two minutes and the RH was changed to the next value (+/−5% RH) when the mass of the sample was stable to within 0.01% for 5 consecutive points.

[2] = Differential scanning calorimetry (thermal stability); assay type: physicochemical; settings: DSC trace, 10° C./min
Protocol: Differential scanning calorimetry (DSC) was performed using a TA Instruments Model Q-10 module with a Thermal Analyst controller. Data were collected and analyzed using TA Instruments Thermal Solutions software. A sample of about 1 mg was accurately weighed into an aluminum pan with lid. The sample was evaluated using a linear heating ramp of 10° C./min from ambient temperature to approximately 250° C. The DSC cell was purged with dry nitrogen during use.

[3] = pH 4.5
Protocol: A solution was prepared with 0.1 mg/mL freebase equivalents (using a crystalline mononapadisylate salt prepared as described in Example 2) in 10 mM citrate buffered normal saline, pH 4.5. […] Less than 0.5% degradation was observed after storage for one month at 40° C./75% RH.

[4] = 6 weeks; −20° C. closed, 40° C./75% RH open and closed, 50° C. closed; all conditions
Protocol: Samples of the crystalline mononapadisylate salt of Example 2, about 200 mg each, were stored in multiple 3 mL borosilicate vials at −20° C. (closed container), 40° C./75% RH (open and closed container), and at 50° C. (closed container). At specific intervals, the entire contents of a representative vial was analyzed by the following HPLC method:
Column: Agilent Zorbox SB-C18, 4.6×250 mm, 5 μm; Mobile Phase A: 98% water, 2% ACN, 0.1% TFA; Mobile Phase B: 10% water, 90% ACN; 0.1% TFA; Flow rate: 1 mL/min; Injection Volume: 20 μL; Detector: 220 nm; Gradient-Time in minutes (% Mobile Phase B): 0.0 (10); 4.00 (20); 26.00 (28); 34.40 (100); 38.40 (100); 38.50 (10); and 45.00 (10). […] These stock solutions were diluted to 1 mg/mL in 10% ACN for injection onto the HPLC.

[5] = Pre-Micronization

SMILES: O=C(CCN1CCC(OC(=O)Nc2ccccc2-c2ccccc2)CC1)NCCCCCNCc1ccc(O)cc1.O=S(=O)(O)c1cccc2c(S(=O)(=O)O)cccc12 [Crystalline Mononapadisylate Salt of Biphenyl-2-ylcarbamic Acid 1-2-[5-(4-Hydroxybenzylamino)pentylcarbamoyl]ethyl]piperidin-4-yl Ester]
- sorption/desorption profile and hygroscopicity ([1]; DMS trace): reversible sorption/desorption profile with low hygroscopicity
- weight gain ([1]; exposed to 2-90% RH): 4.5%
- weight gain ([1]; humidity range of 40-70% RH): 0.7%
- weight gain ([1]; humidity range of 40-75% RH): 0.8%
- weight gain ([1]; humidity range of 40-75% RH, listed as crystalline mononapadisylate salt of the compound of formula I): less than 0.8%
- thermal decomposition temperature (no thermal decomposition below) [2]: ≥ 225 °C
- degradation in solution ([3]; 0.1 mg/mL freebase equivalents in 10 mM citrate buffered normal saline, one month at 40° C./75% RH): Less than 0.5%
- solubility ([3]; 10 mM citrate buffered normal saline): approximately 0.4 mg/mL
- change in chemical purity (HPLC) [4]: no detectable change
- change in the appearance of the material [4]: no observable change
- particle size D (v, 0.1) [5]: 2.5 μm
- particle size D (v, 0.5) [5]: 9.4 μm
- particle size D (v, 0.9) [5]: 22.1 μm
